Measured values from ChEMBL document CHEMBL5308504, “Tm Shift (DSF) assay results for EUbOPEN Chemogenomics Library” (2023).

Legend:
[1] = biological target: Fibroblast growth factor receptor 3 (Homo sapiens) (UniProt P22607); settings: Compound concentration 20.0 uM, Protein concentration 2.0 uM, Result type QC Liability
Description: Thermal Shift Assay. Domain: start/stop: P449-E759

[2] = biological target: T1, Peregrin (Homo sapiens) (UniProt P55201); settings: Compound concentration 20.0 uM, Protein concentration 2.0 uM, Result type QC Liability
T1 sequence (whole entry): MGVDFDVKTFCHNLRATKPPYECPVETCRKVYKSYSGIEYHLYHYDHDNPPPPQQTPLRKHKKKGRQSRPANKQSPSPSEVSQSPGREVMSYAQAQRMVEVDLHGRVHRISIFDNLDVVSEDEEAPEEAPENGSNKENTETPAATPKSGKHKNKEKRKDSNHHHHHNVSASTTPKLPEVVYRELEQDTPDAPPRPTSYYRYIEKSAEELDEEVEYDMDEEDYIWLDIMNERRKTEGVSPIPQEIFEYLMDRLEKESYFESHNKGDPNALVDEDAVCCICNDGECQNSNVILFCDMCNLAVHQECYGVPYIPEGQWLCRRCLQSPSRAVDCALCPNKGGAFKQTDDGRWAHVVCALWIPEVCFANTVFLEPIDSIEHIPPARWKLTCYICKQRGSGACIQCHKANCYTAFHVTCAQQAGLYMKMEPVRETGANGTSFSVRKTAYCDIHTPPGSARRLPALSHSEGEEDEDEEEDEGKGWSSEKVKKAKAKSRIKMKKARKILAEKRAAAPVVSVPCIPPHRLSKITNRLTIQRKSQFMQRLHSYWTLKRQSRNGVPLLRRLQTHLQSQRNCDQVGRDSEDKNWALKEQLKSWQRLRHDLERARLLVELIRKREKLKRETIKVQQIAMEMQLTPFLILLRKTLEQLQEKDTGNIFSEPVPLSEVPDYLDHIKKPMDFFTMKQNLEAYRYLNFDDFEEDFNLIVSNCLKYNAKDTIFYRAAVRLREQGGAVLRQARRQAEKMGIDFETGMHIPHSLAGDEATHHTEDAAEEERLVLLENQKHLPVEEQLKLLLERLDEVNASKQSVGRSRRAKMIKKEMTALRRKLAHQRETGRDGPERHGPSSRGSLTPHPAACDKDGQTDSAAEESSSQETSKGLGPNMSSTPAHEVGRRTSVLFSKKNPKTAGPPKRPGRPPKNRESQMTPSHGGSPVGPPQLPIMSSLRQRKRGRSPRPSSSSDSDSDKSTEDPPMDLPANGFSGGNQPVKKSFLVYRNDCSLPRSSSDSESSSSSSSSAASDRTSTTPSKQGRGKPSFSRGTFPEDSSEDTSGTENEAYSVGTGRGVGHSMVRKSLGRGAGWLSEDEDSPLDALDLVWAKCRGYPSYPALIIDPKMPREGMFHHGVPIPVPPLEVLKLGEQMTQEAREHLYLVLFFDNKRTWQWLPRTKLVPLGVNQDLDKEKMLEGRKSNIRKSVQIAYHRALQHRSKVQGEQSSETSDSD

Chain of Fibroblast growth factor receptor 3 (Homo sapiens) (P22607 23-806 limits assumed): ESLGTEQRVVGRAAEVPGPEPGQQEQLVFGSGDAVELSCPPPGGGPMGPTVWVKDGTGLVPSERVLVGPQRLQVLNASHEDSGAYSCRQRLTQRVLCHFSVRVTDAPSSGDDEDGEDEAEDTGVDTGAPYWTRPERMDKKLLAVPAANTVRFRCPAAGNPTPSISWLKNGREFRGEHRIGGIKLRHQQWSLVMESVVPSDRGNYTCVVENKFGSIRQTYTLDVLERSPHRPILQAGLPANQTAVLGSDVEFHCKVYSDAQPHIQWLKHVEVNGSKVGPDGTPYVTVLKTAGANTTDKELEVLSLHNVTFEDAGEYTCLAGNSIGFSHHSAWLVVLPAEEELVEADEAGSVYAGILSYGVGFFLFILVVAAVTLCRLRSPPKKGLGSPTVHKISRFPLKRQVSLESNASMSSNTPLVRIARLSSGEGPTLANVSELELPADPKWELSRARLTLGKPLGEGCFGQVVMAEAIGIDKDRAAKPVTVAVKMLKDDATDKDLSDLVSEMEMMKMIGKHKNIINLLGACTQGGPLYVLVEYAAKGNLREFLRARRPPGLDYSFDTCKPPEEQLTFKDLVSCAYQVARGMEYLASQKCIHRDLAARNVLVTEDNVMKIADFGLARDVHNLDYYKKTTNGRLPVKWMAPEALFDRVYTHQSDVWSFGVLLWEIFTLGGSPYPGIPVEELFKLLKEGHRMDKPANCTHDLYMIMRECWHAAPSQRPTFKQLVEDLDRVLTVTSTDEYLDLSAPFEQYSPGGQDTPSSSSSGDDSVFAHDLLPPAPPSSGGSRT

| Structure (SMILES) | ΔTm [1] | ΔTm [2] |
| --- | --- | --- |
| CNC(=O)c1cc(C(=O)N[C@H]2[C@@H]3COC[C@@H]32)cc2c1O[C@H](CF)[C@H]2c1ccccc1 | 0.65 °C | -0.69 °C |
| COc1ccccc1Nc1nc(-c2nn(Cc3c(F)cc(OCCCO)cc3F)c3ccccc23)ncc1OC | 0.41 °C | -1.09 °C |
| CC#CC(=O)N1CCN(c2nc(-c3ccc(Oc4ccccc4)cc3)c(C(N)=O)s2)CC1 | -1.02 °C | -1.23 °C |
| CC(C)C(=O)N1CCC(c2cn(C)c3ncc(NC(=O)c4cccc(C#N)c4)c(C(F)(F)F)c23)CC1 | 0.79 °C | 0.27 °C |
| CC1=C(C(=O)OCCO)[C@@H](c2ccc(C#N)cc2)NC(=O)N1c1cccc(C(F)(F)F)c1 | 0.42 °C | -1.72 °C |
| CC(=O)N1CCC(c2ccc(C(=O)NC(=N)N)cc2C(F)(F)F)CC1 | 1.29 °C | -2.69 °C |
| Cc1c(CCC(=O)O)cccc1NC(=O)[C@@H](c1ccc(-c2cncc(Cl)c2)c(F)c1)C1CCCC1 | 0.03 °C | -4.03 °C |
| Cc1cccc(-c2[nH]c(CNc3ccccc3F)nc2-c2ccc3ncnn3c2)n1 | 4.08 °C | 0.68 °C |
| CCS(=O)(=O)c1ccc(OC)c(Nc2ncc(-c3cccc(F)c3)o2)c1 | 3.6 °C | -1.63 °C |
| CSc1ccc(C(=O)/C=C/c2cc(C)c(OC(C)(C)C(=O)O)c(C)c2)cc1 | 1.12 °C | -1.39 °C |
| C=CC(=O)Nc1cccc(C(=O)Nc2ccc(Nc3cc(-c4c(-c5ccc(F)cc5)nc(SC)n4C)ccn3)cc2)c1 | -0.43 °C | 0.18 °C |
| Cn1cc(Nc2nccc(N3CC4CCC(C3)N4C(=O)[C@@H]3CC3(F)F)n2)cn1 | 2.58 °C | -0.71 °C |
| O=C(O)Cc1cc(I)c(Oc2ccc(O)c(I)c2)c(I)c1 | -0.28 °C | -2.62 °C |
| Cc1cn([C@H](C)CC#N)c(=O)c2cc(Cn3nc(C(F)F)cc3Cl)nn12 | 0.78 °C | -1.09 °C |
| COC(=O)Nc1nc2c(s1)-c1c(c(-c3cccnc3)nn1-c1ccc(C3(N(C)C)CC3)cc1)CC2 | 1.4 °C | -1.72 °C |
| CN(C)C/C=C/C(=O)Nc1cccc(S(=O)(=O)N2CCC(NC(=O)c3n[nH]cc3NC(=O)c3c(Cl)cc(Cl)cc3Cl)CC2)c1 | 6.8 °C | -0.81 °C |
| O=C(O)CCCCN(CCc1ccccc1OCc1ccc(CCc2ccccc2)cc1)Cc1ccc(C(=O)O)cc1 | 0.8 °C | -2.23 °C |
| Cc1sc(C(=O)c2cncnc2N[C@@H]2C[C@H](COS(N)(=O)=O)[C@@H](O)C2)cc1[C@@H]1NCCc2ccc(Cl)cc21 | 0.36 °C | -2.76 °C |
| NC1(c2ccc(-c3nc4c(O)ccnn4c3-c3ccccc3)cc2)CCC1 | 0.79 °C | 0.22 °C |
| O=C(Nc1ccc(Cl)c(-c2ccccn2)c1)c1cccc(COc2ccc(Br)cc2CNCCO)c1 | 0.69 °C | -0.98 °C |
| CCC(=O)N[C@H]1CC[C@@H](C(=O)N(C)c2ccc(-c3nc4ccccc4o3)cc2)C1 | 0.8 °C | -2.71 °C |
| N[C@@H](CC(=O)O)Cn1nnc(-c2ccc(Oc3ncc(Cl)cc3F)cc2)n1 | 0.43 °C | -3.09 °C |
| CN(C)C(=O)c1cc2cnc(Nc3ccc(N4CCN(CCCCNC(=O)COc5cccc6c5C(=O)N(C5CCC(=O)NC5=O)C6=O)CC4)cn3)nc2n1C1CCCC1 (stereo not drawn) | 0.68 °C | -1.94 °C |
| CO[C@H](C)CN1CC[C@@]2(C)c3ccc(O)cc3C[C@@H]1C2(C)C | 0.41 °C | -2.03 °C |
| CN(C)[C@H]1CCc2nc(NC(=O)c3cccc(Cn4cc(-c5ccc(C#N)cc5)cn4)c3)sc2C1 | 0.81 °C | 0.07 °C |
| CS(=O)(=O)c1ccc(-c2cnc(N)c(C(=O)Nc3ccccc3)n2)cc1 | 1.51 °C | -1.36 °C |
| O=C(O)CCn1c2c(c3ccccc31)C[C@H](NS(=O)(=O)c1ccc(F)cc1)CC2 | 0.49 °C | -1.45 °C |
| O=C1Nc2nc(-c3c(O)cccc3OCC3CC3)cc([C@@H]3CCCNC3)c2CO1 | 1.04 °C | -2.51 °C |
| COc1ccc(-c2csc(NC(=O)[C@H]3CCCCN3S(=O)(=O)c3ccc(C)cc3)n2)cc1 | 0.16 °C | -0.84 °C |
